Article PMC7318245, “Powering Artificial Enzymatic Cascades with Electrical Energy” (Angewandte Chemie (International Ed. in English), 2020)

Target: T1, SH (O2-tolerant, NAD+-reducing hydrogenase, soluble hydrogenase) (Cupriavidus necator, UniProt P22317)
T1 construct: gene hoxF; purified; immobilised on Amberlite FP54; hydrogenase and diaphorase modules; with NAD-reducing hydrogenase HoxS subunit gamma; NAD-reducing hydrogenase HoxS subunit delta; NAD-reducing hydrogenase HoxS subunit beta; NAD-reducing hydrogenase subunit HoxI
Experiment: on-line H2 consumption and NADH evolution
Format: biochemical
Conditions: immobilised enzyme in cascade; 2 mM NAD+, H2, Tris-HCl 50 mM pD 8.0, 22 °C

T1 sequence (P22317 whole entry): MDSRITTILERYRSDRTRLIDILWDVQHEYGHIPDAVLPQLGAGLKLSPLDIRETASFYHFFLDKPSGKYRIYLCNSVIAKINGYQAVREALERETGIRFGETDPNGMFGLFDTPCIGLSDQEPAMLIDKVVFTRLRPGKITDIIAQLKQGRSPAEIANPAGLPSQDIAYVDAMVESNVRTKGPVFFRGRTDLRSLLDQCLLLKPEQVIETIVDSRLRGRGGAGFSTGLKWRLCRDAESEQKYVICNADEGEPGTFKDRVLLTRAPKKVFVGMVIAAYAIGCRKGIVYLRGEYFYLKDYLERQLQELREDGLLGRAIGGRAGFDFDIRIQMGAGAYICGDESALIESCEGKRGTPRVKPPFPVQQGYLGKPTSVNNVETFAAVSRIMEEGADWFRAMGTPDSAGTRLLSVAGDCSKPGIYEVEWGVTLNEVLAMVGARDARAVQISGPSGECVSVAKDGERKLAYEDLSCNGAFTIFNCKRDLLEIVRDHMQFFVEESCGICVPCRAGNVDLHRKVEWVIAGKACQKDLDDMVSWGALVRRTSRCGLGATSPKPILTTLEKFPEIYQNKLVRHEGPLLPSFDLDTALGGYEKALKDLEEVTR
T1 sequence (P22318 2-234 partner): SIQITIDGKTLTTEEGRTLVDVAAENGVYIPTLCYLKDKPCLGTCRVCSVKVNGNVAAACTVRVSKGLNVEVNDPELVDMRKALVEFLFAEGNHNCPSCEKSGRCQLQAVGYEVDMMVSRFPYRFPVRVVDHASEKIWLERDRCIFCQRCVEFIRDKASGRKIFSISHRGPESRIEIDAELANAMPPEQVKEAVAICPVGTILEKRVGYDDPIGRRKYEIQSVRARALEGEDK
T1 sequence (P22319 whole entry partner): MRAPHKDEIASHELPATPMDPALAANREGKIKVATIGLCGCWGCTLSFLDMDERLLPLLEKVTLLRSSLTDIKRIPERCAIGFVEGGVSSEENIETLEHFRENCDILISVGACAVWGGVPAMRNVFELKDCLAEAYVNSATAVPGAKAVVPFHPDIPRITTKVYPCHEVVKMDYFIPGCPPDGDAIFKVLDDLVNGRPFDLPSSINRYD
T1 sequence (P22320 2-464 partner): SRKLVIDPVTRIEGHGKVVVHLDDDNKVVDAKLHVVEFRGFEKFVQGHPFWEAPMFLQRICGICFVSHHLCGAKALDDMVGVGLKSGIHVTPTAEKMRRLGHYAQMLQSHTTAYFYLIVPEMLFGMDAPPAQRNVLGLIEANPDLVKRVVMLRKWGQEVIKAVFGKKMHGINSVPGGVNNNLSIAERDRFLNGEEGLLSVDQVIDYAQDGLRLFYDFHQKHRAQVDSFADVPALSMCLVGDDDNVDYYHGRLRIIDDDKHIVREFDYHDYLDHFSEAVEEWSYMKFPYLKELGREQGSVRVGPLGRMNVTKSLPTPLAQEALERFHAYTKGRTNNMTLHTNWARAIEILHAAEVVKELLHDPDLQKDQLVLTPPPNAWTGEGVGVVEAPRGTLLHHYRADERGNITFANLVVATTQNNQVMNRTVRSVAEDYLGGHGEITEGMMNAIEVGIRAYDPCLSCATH

NC(=O)c1ccc[n+]([C@@H]2O[C@H](COP(=O)(O)OP(=O)(O)OC[C@H]3O[C@@H](n4cnc5c(N)ncnc54)[C@H](O)[C@@H]3O)[C@@H](O)[C@H]2O)c1 [NAD^+]
on-line H2 consumption and NADH evolution: consumption of H2 (A) and the evolution of NADH (C)
